Measured values reported in the supplement of paper PMC9938120.

Tests used:
Test in all cases: drug sensitivity score (DSS3, normalised partial AUC of % inhibition dose-response) (DSS (score)); higher = more sensitive (stronger inhibition of viability); extreme values may be limits of the assay
FMOC25_2 = patient-derived low-grade serous ovarian cancer cells; conditions: 72 h; library: FO5A; assay format: 2D, 384-well, CellTiter-Glo
In short: (§1)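 The drug sensitivity score is calculated as a partial area under the percent-inhibition dose-response curve, divided by the log of the upper asymptote; higher scores mean more sensitive. For this score, early-passage (under 10) patient-derived ovarian cancer cells were exposed on 384-well flat clear-bottom plates to compounds at five concentrations across a 10,000-fold range for 72 h at 37 °C, 5% CO2. Viability was read with CellTiter-Glo and processed in Breeze.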

FMOC22 = patient-derived mucinous ovarian cancer cells; conditions: 72 h; library: FO5A; assay format: 2D, 384-well, CellTiter-Glo
In short: as §1

FMOC03 = patient-derived mucinous ovarian cancer cells; conditions: 72 h; library: FO5A; assay format: 2D, 384-well, CellTiter-Glo
In short: as §1

FMOC02_2 = patient-derived low-grade serous ovarian cancer cells; conditions: 72 h; library: FO5A; assay format: 2D, 384-well, CellTiter-Glo
In short: as §1

FMOC25_1 = patient-derived low-grade serous ovarian cancer cells; conditions: 72 h; library: FO4B; assay format: 2D, 384-well, CellTiter-Glo
In short: as §1

FMOC14 = patient-derived high-grade serous ovarian cancer cells; conditions: 72 h; library: FO5A; assay format: 2D, 384-well, CellTiter-Glo
In short: as §1

FMOC24 = patient-derived high-grade serous ovarian cancer cells; conditions: 72 h; library: FO5A; assay format: 2D, 384-well, CellTiter-Glo
In short: as §1

FMOC02_3 = patient-derived low-grade serous ovarian cancer cells; conditions: 72 h; library: FO5A; assay format: 2D, 384-well, CellTiter-Glo
In short: as §1

FMOC09 = patient-derived high-grade serous ovarian cancer cells; conditions: 72 h; library: FO5A; assay format: 2D, 384-well, CellTiter-Glo
In short: as §1

FMOC06 = patient-derived mucinous ovarian cancer cells; conditions: 72 h; library: FO5A; assay format: 2D, 384-well, CellTiter-Glo
In short: as §1

| Compound | drug sensitivity score (FMOC25_2) | drug sensitivity score (FMOC22) | drug sensitivity score (FMOC03) | drug sensitivity score (FMOC02_2) | drug sensitivity score (FMOC25_1) | drug sensitivity score (FMOC14) | drug sensitivity score (FMOC24) | drug sensitivity score (FMOC02_3) | drug sensitivity score (FMOC09) | drug sensitivity score (FMOC06) |
| --- | --- | --- | --- | --- | --- | --- | --- | --- | --- | --- |
| COc1cc(NS(C)(=O)=O)ccc1Nc1c2ccccc2nc2ccccc12 [Amsacrine] | 7.1 | 8.3 | 6 | 5.2 | 8.2 | 2.2 | 8.05 | 7 | 4.7 | 4.5 |
| CN1CC[C@H](c2c(O)cc(O)c3c(=O)cc(-c4ccccc4Cl)oc23)[C@H](O)C1 [Alvocidib] | 19.6 | 12.8 | 17.9 | 21.3 | 19.1 | 15.3 | 18.7 | 22.4 | 10.7 | 17 |
| CC(=O)Nc1cccc(-n2c(=O)n(C3CC3)c(=O)c3c(Nc4ccc(I)cc4F)n(C)c(=O)c(C)c32)c1 [Trametinib] | 12 | 11.6 | 16.6 | 15.1 | 12.4 | 0.9 | 0 | 14 | 9.9 | 15.9 |
| O=C(/C=C\n1cnc(-c2cc(C(F)(F)F)cc(C(F)(F)F)c2)n1)NNc1ccccn1 [Verdinexor] | 11.9 | 8.6 | 8.2 | 9.4 | 6.2 | 6 | 11.2 | 9.2 | 7.6 | 11.2 |
| COc1cccc(OCCCN)c1-c1cc(Nc2cnc(C#N)cn2)n[nH]1 [Prexasertib] | 19.1 | 19.6 | 11.8 | 15.1 | 15.3 | 22.6 | 24.7 | 18.6 | 19.5 | 12.6 |
| COc1cc(N2CCC(N3CCN(C)CC3)CC2)ccc1Nc1ncnc(Nc2ccccc2S(=O)(=O)C(C)C)n1 [ASP3026] | 8.6 | 4 | 4 | 9.8 | 5.2 | 0.8 | 5.1 | 8.1 | 7.2 | 4.9 |
| COc1cc2ncnc(Nc3ccc(F)c(Cl)c3)c2cc1NC(=O)/C=C/CN1CCCCC1 [Dacomitinib] | 18.6 | 1.7 | 18.2 | 20.4 | 7.8 | 4.6 | 0.3 | 18 | 16.1 | 5.5 |
| CCC1=C[C@@H]2CN(C1)Cc1c([nH]c3ccccc13)[C@@](C(=O)OC)(c1cc3c(cc1OC)N(C)[C@H]1[C@@](O)(C(=O)OC)[C@H](OC(C)=O)[C@]4(CC)C=CCN5CC[C@]31[C@@H]54)C2 [Vinorelbine] | 17.8 | 16.3 | 17.9 | 14.8 | 17.7 | 2.4 | 6.6 | 23.1 | 17.9 | 17.1 |
| CN(C)Cc1ccc(S(=O)(=O)n2ccc(/C=C/C(=O)NO)c2)cc1 [Resminostat] | 7.7 | 6.8 | 8.1 | 9.7 | 3.4 | 8.2 | 6.3 | 7.4 | 3.3 | 6.8 |
| Nc1ccn([C@@H]2O[C@H](CO)[C@@H](O)C2(F)F)c(=O)n1 [Gemcitabine] | 14.6 | 12.7 | 2.9 | 16.3 | 7.6 | 0 | 6 | 17.3 | 10.5 | 5.4 |
| CCn1c(=O)c(-c2ccc(Cl)cc2Cl)cc2cnc(Nc3ccc(N4CCNCC4)c(F)c3)nc21 [FRAX486] | 11.9 | 0.1 | 2.4 | 12.2 | 3.2 | 0.2 | 9.45 | 14.7 | 3.7 | 1.7 |
| CC[C@H](NC(=O)[C@H](C)NC)C(=O)N1C[C@@H](O)C[C@H]1Cc1c(-c2[nH]c3cc(F)ccc3c2C[C@@H]2C[C@H](O)CN2C(=O)[C@H](CC)NC(=O)[C@H](C)NC)[nH]c2cc(F)ccc12 [Birinapant] | 8.3 | 0 | 0 | 0 | 1.1 | 4.5 | 21.2 | 0 | 0 | 3.9 |
| CCCCCCCCc1ccc(CCC(N)(CO)CO)cc1 [Fingolimod] | 5.7 | 5.3 | 5.1 | 7.7 | 6.2 | 7.3 | 10.8 | 6.1 | 6 | 7 |
| O=C(Nc1cccc(NC(=O)c2cccc(O)c2O)c1)c1cccc(O)c1O [MST-312] | 2.4 | 10.1 | 6.2 | 2.7 | 4.5 | 8.2 | 5.55 | 7.7 | 9.7 | 5.7 |
| CO[C@H]1C[C@@H]2CC[C@@H](C)[C@@](O)(O2)C(=O)C(=O)N2CCCC[C@H]2C(=O)O[C@H]([C@H](C)C[C@@H]2CC[C@@H](OC(=O)C(C)(CO)CO)[C@H](OC)C2)CC(=O)[C@H](C)/C=C(\C)[C@@H](O)[C@@H](OC)C(=O)[C@H](C)C[C@H](C)/C=C/C=C/C=C/1C [Temsirolimus] | 13.1 | 9.7 | 5.6 | 9.5 | 13.6 | 8.9 | 0.5 | 16.5 | 3.5 | 2.5 |
| CS(=O)(=O)N1CCN(Cc2cc3nc(-c4cccc5[nH]ncc45)nc(N4CCOCC4)c3s2)CC1 [Pictilisib] | 14.3 | 5.1 | 9.4 | 16.8 | 12.9 | 9.2 | 5.35 | 16.1 | 11.9 | 10.6 |

| Compound | drug sensitivity score (FMOC25_2) | drug sensitivity score (FMOC22) | drug sensitivity score (FMOC03) | drug sensitivity score (FMOC02_2) | drug sensitivity score (FMOC25_1) | drug sensitivity score (FMOC14) | drug sensitivity score (FMOC24) | drug sensitivity score (FMOC02_3) | drug sensitivity score (FMOC09) | drug sensitivity score (FMOC06) |
| --- | --- | --- | --- | --- | --- | --- | --- | --- | --- | --- |
| CC1(COc2ccc3c(c2)ncn3-c2ccc3cccc(N4CCC(N)CC4)c3n2)COC1 [Crenolanib] | 4.8 | 5 | 4.4 | 6.1 | 4.3 | 4.4 | 9.25 | 4.6 | 3 | 4.4 |
| CCn1c(-c2nonc2N)nc2c(C#CC(C)(C)O)ncc(OC[C@H]3CCCNC3)c21 | 8.1 | 1.2 | 2 | 10.3 | 4.5 | 2.7 | 1.6 | 12.5 | 2.4 | 4.5 |
| O=C(Nc1cccc(Nc2ncc(Br)c(NCCc3cnc[nH]3)n2)c1)N1CCCC1 [BX-912] | 7.6 | 2.4 | 2.4 | 5 | 6.2 | 0.5 | 4.65 | 7.6 | 2 | 4.4 |
| O=c1[nH]c(=O)n([C@H]2C[C@H](O)[C@@H](CO)O2)cc1F [Floxuridine] | 3.8 | 9.3 | 4.1 | 2.6 | 0.5 | 0.8 | 0 | 2.3 | 2.2 | 0.8 |
| O=C(Nc1ccc2[nH]nc(-c3ccncc3)c2c1)[C@@H]1CCN(CC(=O)N2CCN(c3ccc(-c4ncccn4)cc3)CC2)C1 | 18 | 11.8 | 18.4 | 14.3 | 16.6 | 1.1 | 3.15 | 16.8 | 9.6 | 14.9 |
| COc1cc([C@@H]2c3cc4c(cc3[C@@H](O[C@@H]3O[C@@H]5CO[C@@H](C)O[C@H]5[C@H](O)[C@H]3O)[C@H]3COC(=O)[C@H]23)OCO4)cc(OC)c1O [Etoposide] | 2.9 | 6.1 | 1.7 | 1.4 | 2.8 | 1.7 | 1.9 | 2.7 | 5.6 | 3.5 |
| CCN(CC)CCCC(C)Nc1ccnc2cc(Cl)ccc12 (stereo not given) [Chloroquine] | 7 | 5.6 | 7.8 | 10.1 | 7.1 | 7.6 | 10.2 | 9.4 | 6 | 7.2 |
| C=CC(=O)Nc1cc(Nc2nccc(-c3cn(C)c4ccccc34)n2)c(OC)cc1N(C)CCN(C)C [Osimertinib] | 11.2 | 3.3 | 11.7 | 15 | 7.3 | 6.1 | 4.35 | 12 | 11.3 | 4 |
| COc1cc(Nc2ncc3c(n2)-c2ccc(Cl)cc2C(c2c(F)cccc2OC)=NC3)ccc1C(=O)O [Alisertib] | 2.3 | 2.2 | 4.7 | 4.8 | 0.9 | 0.7 | 1 | 5.8 | 2.3 | 1.3 |
| CN1CCN(c2cc(C(=O)Nc3ccc4c(c3)-c3c(c(C(N)=O)nn3-c3ccc(F)cc3)CC4)c(Cl)cn2)CC1 [PHA 408] | 11 | 4.6 | 5.2 | 4 | 0.6 | 4 | 9 | 6.8 | 4.8 | 4.6 |
| C=CC(=O)N1CCC(Oc2cc3c(Nc4ccc(Cl)c(Cl)c4F)ncnc3cc2OC)CC1 [Poziotinib] | 20.3 | 0.8 | 24.6 | 24.2 | 10.5 | 6.5 | 2.1 | 21.8 | 16.7 | 6.1 |
| Nc1ncnc2c1nc(N)n2[C@@H]1O[C@H](CO)[C@@H](O)[C@H]1O [8-amino-adenosine] | 18.6 | 18.6 | 18.3 | 27.5 | 20.5 | 16 | 18.8 | 21.7 | 20.2 | 20.3 |
| CO[C@H](C(=O)[C@@H](O)[C@@H](C)O)[C@@H]1Cc2cc3cc(O[C@H]4C[C@@H](O[C@@H]5C[C@@H](O)[C@H](O)[C@@H](C)O5)[C@H](O)[C@@H](C)O4)c(C)c(O)c3c(O)c2C(=O)[C@H]1O[C@H]1C[C@@H](O[C@@H]2C[C@@H](O)[C@@H](O[C@@H]3C[C@](C)(O)[C@H](O)[C@@H](C)O3)[C@@H](C)O2)[C@H](O)[C@@H](C)O1 [Plicamycin] | 29.1 | 5.1 | 4.6 | 9 | 7 | 10.1 | 9 | 16.7 | 2.6 | 6.2 |
| Cn1ncc(Cl)c1-c1cc(C(=O)N[C@H](CN)Cc2ccc(F)c(F)c2)oc1Cl [Uprosertib] | 4.1 | 0.7 | 0 | 13.1 | 3.5 | 3.5 | 1.35 | 13.7 | 0 | 4.3 |
| NC(=O)Nc1cc(-c2cccc(F)c2)sc1C(=O)N[C@H]1CCCNC1 [AZD7762] | 4.5 | 3.3 | 1.5 | 3.5 | 3.3 | 6.2 | 9.15 | 6.1 | 6.3 | 3.6 |
| O=C(CCCCCCC(=O)Nc1ccccc1)NO [Vorinostat] | 8.5 | 4.6 | 5.5 | 9.8 | 5.5 | 6.8 | 10.1 | 7.7 | 3.1 | 7.4 |
